Experimental data reported in patent US20250304623A1, “PEPTIDES FOR INTRACELLULAR DELIVERY” (UNIVERSIDADE DE SANTIAGO DE COMPOSTELA, priority 2022, published 2025).
Starred links: 1 amine or outer side, 2 acyl side, 3 side chain; linkers in the order of their positions; H or OH if unused. Residues, ends and D or L forms follow the SMILES beside them. Groups on a side chain read outwards from the residue. *: point of attachment. Glutaryl = O=C(CCCC(=O)[*:2])[*:1]; NHNH2 = NN*

What was measured:
Type in all cases: cell-based
[1] = tested on: HCT116 cells; assay: RLuc pDNA delivery, robotic library screening, HCT116
[2] = tested on: HCT116 cells expressing EGFP; assay: EGFP-targeting siRNA delivery (GFP silencing vs siMOCK), HCT116
Description: To generate an EGFP expressing HeLa cell line, HeLa cells were transfected with EGFP pDNA (pEGFP-C1, Clontech) and stable transfectants were selected with 400 μg/mL of G-418 (Millipore). Green clones were selected by epifluorescence microscopy and tested for EGFP expression stability through several passages. […] All other EGFP-expressing cell lines were obtained in a similar way from parent non-EGFP-expressing cell lines.
Cells expressing EGFP were seeded in a 96 well plate the day before the experiment at a concentration of 50,000 cell/mL (100 μL/w) in DMEM+10% FBS+1% Gln-Abt. For robotic library screening, the delivery of an EGFP-targeting siRNA (EGFP: enhanced green fluorescent protein, Ambion® Silencer® GFP Positive Control siRNA (siGFP) (AM4626)) in six different cell lines expressing EGFP was performed. Amphiphilic molecules stock solutions in DMSO were diluted with DMEM and freshly mixed with siRNA stock solutions in DMEM prior to transfection experiments, to afford several complexes at different amphiphile concentration (2-10 μM) while maintaining a constant final siRNA concentration of 30 nM. The mixture was shaken for 30 min at room temperature (rt) before the addition to the cells. The cell medium was aspirated, and cells were washed twice with PBS. Finally, 50 μL of the solution of siRNA/amphiphile complexes were added to the cells and incubated for 4 h. After transfection, the medium was replaced by 100 μL of fresh DMEM supplemented with 10% FBS. The fluorescence knockdown was quantified after 72 h in a plate reader, by comparison with cells transfected with a non-targeting siRNA control (siMOCK, Silencer™ Negative Control No. 1 siRNA (siMOCK) (AM4611)). EGFP knockdown was compared with Lipofectamine® RNAiMAX silencing efficiency (30-60% depending on cell line, defined with a numeric value in the below tables). All experiments were done in triplicate.
(§1) Tables 1-7: RLuc (pDNA) or EGFP (mRNA) expression levels were normalized to Lipofectamine reagents (value=1) and expressed as fold-times signal increase. In the case of siRNA, the siRNA treated cells fluorescence was compared with siMOCK control fluorescence, while Cas9-RNP mediated knockout was measured against the fluorescence of untreated cells. In both siRNA and Cas9-RNP, values are expressed as % fluorescence reduction. Amphiphile concentration was 5 μM in all cases. All experiments were performed in triplicate.
Tables 20-25 show the mean (triplicates) percentage of GFP-silencing, accounted by fluorescence intensity decrease relative to a non-targeting siRNA (siMOCK) control, measured after the transfection of siRNA by different amphiphiles at different concentrations in a variety of cell lines. Background values, accounted by untreated control cells, were subtracted for processing.

[3] = tested on: HepG2 cells; assay: EGFP mRNA delivery, robotic library screening, HepG2; settings: for mean fluorescence intensity after transfection of EGFP mRNA: HepG2 cells
Description: Cells were seeded in a 96 well plate the day before the experiment at a concentration of 50,000 cell/mL (100 μL/w) in DMEM+10% FBS+1% Gln-Abt. For robotic library screening, the delivery of EGFP-mRNA (from TriLink, fully substituted with 5-methoxyuridine, capped and polyadenylated; TriLink, CleanCap® EGFP mRNA (5moU), ref. L-7201) in six different cell lines was performed. Amphiphilic molecule stock solutions were prepared in DMSO as described above and diluted in DMEM to afford a range of concentrations. The solutions of EGFP-mRNA/amphiphilic molecule complexes were freshly prepared prior to the transfection experiments. 35 μL of the corresponding amphiphile were added to 10 μL of a solution of EGFP-mRNA at 10 ng/μL in DMEM. The mixture was shaken for 30 min at room temperature before the addition to the cells. The cell medium was aspirated, and cells were washed with PBS twice. […] After the incubation, the medium was replaced by 100 μL of fresh DMEM supplemented with 10% FBS. The total EGFP fluorescence was quantified after 72 h in a well plate reader. Amphiphile transfection efficiency was compared and normalized to Lipofectamine® MessengerMax efficiency (value of 1 in Tables 1-5 and 7; double underlined numbers). All experiments were done in triplicate.
as §1
Tables 14-19 show the mean (triplicates) fluorescence intensity measured after the transfection of EGFP mRNA by different amphiphiles at different concentrations in a variety of cell lines. Background fluorescence values, accounted by untreated control cells, were subtracted for processing.

Compound: CC(=O)N[C@@H](CCCNC(=N)N)C(=O)N[C@@H](CCCCNC(=O)CCCC(=O)NN)C(=O)N[C@@H](Cc1c[nH]cn1)C(=O)N[C@@H](CCCNC(=N)N)C(=O)N[C@@H](CCCCNC(=O)CCCC(=O)NN)C(=O)N[C@@H](CCCCNC(=O)CCCC(=O)NN)C(=O)N[C@@H](Cc1c[nH]cn1)C(N)=O [7.3(L-H), Ac-RK*HRK*K*H-NH2] (Ac-RK([Glutaryl-NHNH2])HRK([Glutaryl-NHNH2])K([Glutaryl-NHNH2])H-NH2)
- mean luminescent intensity (RLuc pDNA) ([1]; Myristoleyl, 5 μM): 193237 RLU
- mean luminescent intensity (RLuc pDNA) ([1]; Myristoleyl, 10 μM): 172603 RLU
- mean luminescent intensity (RLuc pDNA) ([1]; Myristoleyl, 15 μM): 42433 RLU
- mean luminescent intensity (RLuc pDNA) ([1]; Palmitoleyl, 5 μM): 294813 RLU
- mean luminescent intensity (RLuc pDNA) ([1]; Palmitoleyl, 10 μM): 248907 RLU
- mean luminescent intensity (RLuc pDNA) ([1]; Palmitoleyl, 15 μM): 89543 RLU
- mean luminescent intensity (RLuc pDNA) ([1]; Petroselinyl, 5 μM): 147949 RLU
- mean luminescent intensity (RLuc pDNA) ([1]; Petroselinyl, 10 μM): 114522 RLU
- mean luminescent intensity (RLuc pDNA) ([1]; Petroselinyl, 15 μM): 48178 RLU
- pDNA delivery, times better than Lipofectamine 2000 ([1]; palmitoleyl aldehyde): up to 10 times
- percentage of GFP-silencing relative to siMOCK ([2]; Dodecanal, 5 μM): −10%
- percentage of GFP-silencing relative to siMOCK ([2]; Dodecanal, 10 μM): 5%
- percentage of GFP-silencing relative to siMOCK ([2]; Myristoleyl, 10 μM): 49%
- percentage of GFP-silencing relative to siMOCK ([2]; Myristoleyl, 15 μM): 3%
- percentage of GFP-silencing relative to siMOCK ([2]; Oleyl, 5 μM): 24%
- percentage of GFP-silencing relative to siMOCK ([2]; Oleyl, 15 μM): 46%
- percentage of GFP-silencing relative to siMOCK ([2]; Palmitoleyl, 5 μM): 21%
- percentage of GFP-silencing relative to siMOCK ([2]; Palmitoleyl, 10 μM): 56%
- percentage of GFP-silencing relative to siMOCK ([2]; Palmitoleyl, 15 μM): 38%
- percentage of GFP-silencing relative to siMOCK ([2]; Petroselinyl, 5 μM): 4%
- percentage of GFP-silencing relative to siMOCK ([2]; Petroselinyl, 10 μM): 24%
- percentage of GFP-silencing relative to siMOCK ([2]; Petroselinyl, 15 μM): 43%
- mean fluorescence intensity after transfection of EGFP mRNA ([3]; Dodecanal, 5 μM): 1140
- mean fluorescence intensity after transfection of EGFP mRNA ([3]; Dodecanal, 10 μM): 201
- mean fluorescence intensity after transfection of EGFP mRNA ([3]; Dodecanal, 15 μM): 533
- mRNA delivery relative to Lipofectamine MessengerMAX ([3]; HepG2, myristoleyl or petroselinyl aldehydes): able to outperform the activity of Lipofectamine® MessengerMAX
- mean fluorescence intensity after transfection of EGFP mRNA ([3]; Myristoleyl, 5 μM): 31364
- mean fluorescence intensity after transfection of EGFP mRNA ([3]; Myristoleyl, 10 μM): 12495
- mean fluorescence intensity after transfection of EGFP mRNA ([3]; Myristoleyl, 15 μM): 3194
- mean fluorescence intensity after transfection of EGFP mRNA ([3]; Oleyl, 5 μM): 4242
- mean fluorescence intensity after transfection of EGFP mRNA ([3]; Oleyl, 10 μM): 1217
- mean fluorescence intensity after transfection of EGFP mRNA ([3]; Oleyl, 15 μM): 1484
- mean fluorescence intensity after transfection of EGFP mRNA ([3]; Palmitoleyl, 5 μM): 8855
- mean fluorescence intensity after transfection of EGFP mRNA ([3]; Palmitoleyl, 10 μM): 3885
- mean fluorescence intensity after transfection of EGFP mRNA ([3]; Petroselinyl, 5 μM): 35842
- mean fluorescence intensity after transfection of EGFP mRNA ([3]; Petroselinyl, 10 μM): 18737
- mean fluorescence intensity after transfection of EGFP mRNA ([3]; Petroselinyl, 15 μM): 4860

Compound: Ac-RHLK*RHK*RRLK*RH-NH2 (Ac-RHLKRHKRRLKRH-NH2; not fully specified (residues 4, 7, 11); printed as Ac-RHLK*RHK*RRLK*RH-NH2; also: linker on K* not given here) [13(3His)]
- mean luminescent intensity (RLuc pDNA) ([1]; Dodecanal, 5 μM): 22167 RLU
- mean luminescent intensity (RLuc pDNA) ([1]; Dodecanal, 10 μM): 7176 RLU
- mean luminescent intensity (RLuc pDNA) ([1]; Myristoleyl, 5 μM): 94125 RLU
- mean luminescent intensity (RLuc pDNA) ([1]; Myristoleyl, 15 μM): 738 RLU
- mean luminescent intensity (RLuc pDNA) ([1]; Palmitoleyl, 5 μM): 109244 RLU
- mean luminescent intensity (RLuc pDNA) ([1]; Petroselinyl, 5 μM): 19145 RLU
- mean luminescent intensity (RLuc pDNA) ([1]; Petroselinyl, 10 μM): 45000 RLU
- mean luminescent intensity (RLuc pDNA) ([1]; Petroselinyl, 15 μM): 8961 RLU
- percentage of GFP-silencing relative to siMOCK ([2]; Dodecanal, 10 μM): 62%
- percentage of GFP-silencing relative to siMOCK ([2]; Dodecanal, 15 μM): 56%
- percentage of GFP-silencing relative to siMOCK ([2]; Myristoleyl, 10 μM): 45%
- percentage of GFP-silencing relative to siMOCK ([2]; Myristoleyl, 15 μM): 29%
- percentage of GFP-silencing relative to siMOCK ([2]; Oleyl, 15 μM): 31%
- percentage of GFP-silencing relative to siMOCK ([2]; Palmitoleyl, 10 μM): 56%
- percentage of GFP-silencing relative to siMOCK ([2]; Petroselinyl, 5 μM): 13%
- percentage of GFP-silencing relative to siMOCK ([2]; Petroselinyl, 10 μM): 60%
- percentage of GFP-silencing relative to siMOCK ([2]; Petroselinyl, 15 μM): 27%

Compound: Ac-RHLK*RLK*RRLK*RL-NH2 (Ac-RHLKRLKRRLKRL-NH2; not fully specified (residues 4, 7, 11); printed as Ac-RHLK*RLK*RRLK*RL-NH2; also: linker on K* not given here) [13(Arg-His)]
- mean luminescent intensity (RLuc pDNA) ([1]; Dodecanal, 5 μM): 237160 RLU
- mean luminescent intensity (RLuc pDNA) ([1]; Dodecanal, 10 μM): 20219 RLU
- mean luminescent intensity (RLuc pDNA) ([1]; Dodecanal, 15 μM): 2518 RLU
- mean luminescent intensity (RLuc pDNA) ([1]; Myristoleyl, 15 μM): −246 RLU
- mean luminescent intensity (RLuc pDNA) ([1]; Oleyl, 5 μM): 18755 RLU
- mean luminescent intensity (RLuc pDNA) ([1]; Oleyl, 10 μM): 2608 RLU
- mean luminescent intensity (RLuc pDNA) ([1]; Palmitoleyl, 5 μM): 244732 RLU
- mean luminescent intensity (RLuc pDNA) ([1]; Petroselinyl, 5 μM): 105576 RLU
- mean luminescent intensity (RLuc pDNA) ([1]; Petroselinyl, 15 μM): 4534 RLU
- percentage of GFP-silencing relative to siMOCK ([2]; Dodecanal, 5 μM): 65%
- percentage of GFP-silencing relative to siMOCK ([2]; Myristoleyl, 5 μM): 62%
- percentage of GFP-silencing relative to siMOCK ([2]; Myristoleyl, 10 μM): 24%
- percentage of GFP-silencing relative to siMOCK ([2]; Palmitoleyl, 5 μM): 64%
- percentage of GFP-silencing relative to siMOCK ([2]; Petroselinyl, 5 μM): 56%
- mean fluorescence intensity after transfection of EGFP mRNA ([3]; Dodecanal, 10 μM): 782
- mean fluorescence intensity after transfection of EGFP mRNA ([3]; Dodecanal, 15 μM): 868
- mean fluorescence intensity after transfection of EGFP mRNA ([3]; Oleyl, 5 μM): 5251
- mean fluorescence intensity after transfection of EGFP mRNA ([3]; Palmitoleyl, 5 μM): 4616
- mean fluorescence intensity after transfection of EGFP mRNA ([3]; Palmitoleyl, 10 μM): 2070
- mean fluorescence intensity after transfection of EGFP mRNA ([3]; Palmitoleyl, 15 μM): 1943
- mean fluorescence intensity after transfection of EGFP mRNA ([3]; Petroselinyl, 5 μM): 1986
- mean fluorescence intensity after transfection of EGFP mRNA ([3]; Petroselinyl, 10 μM): 508

Compound: Ac-RK*LRRLLRK*-NH2 (Ac-RK(NHNH2)LRRLLRK(NHNH2)-NH2; not fully specified; printed as Ac-RK*LRRLLRK*-NH2; also: K*2,K*9: native or modified lysine (ε-amide to a linker)) [Peptide 9.2]
- mean luminescent intensity (RLuc pDNA) ([1]; Dodecanal, 10 μM): 819 RLU
- mean luminescent intensity (RLuc pDNA) ([1]; Dodecanal, 15 μM): 1099 RLU
- mean luminescent intensity (RLuc pDNA) ([1]; Myristoleyl, 5 μM): −544 RLU
- mean luminescent intensity (RLuc pDNA) ([1]; Myristoleyl, 10 μM): −623 RLU
- mean luminescent intensity (RLuc pDNA) ([1]; Myristoleyl, 15 μM): −617 RLU
- percentage of GFP-silencing relative to siMOCK ([2]; Dodecanal, 5 μM): −7%
- percentage of GFP-silencing relative to siMOCK ([2]; Dodecanal, 10 μM): 3%
- percentage of GFP-silencing relative to siMOCK ([2]; Dodecanal, 15 μM): 11%
- percentage of GFP-silencing relative to siMOCK ([2]; Myristoleyl, 10 μM): −9%
- percentage of GFP-silencing relative to siMOCK ([2]; Myristoleyl, 15 μM): −38%
